# Measurements taken from patent publication US20130005699A1, “METHODS AND PRODUCTS FOR TREATMENT OF DISEASES” (DMI ACQUISITION CORP., priority 2009, published 2013).
# Assays:
# RhoA = experiment: Rho activation assay (GLISA) in retinal endothelial cells; assay type: cell-based, human
# Description: This experiment was performed using a commercially-available Rho activation assay (GLISA) purchased from Cytoskeleton, Denver, Colo., following the manufacturer's protocol. […] Test compounds diluted in HBSS were placed in the incubator to equilibrate before addition to the cells. Then, 150 μl of each test compound was added to the appropriate culture wells, and the plates were incubated in the incubator for an additional 15 minutes. Then, thrombin was added to appropriate wells. After 1 minute, the cells were washed one time with 1.5 ml phosphate buffered saline and were then lysed with 100 μl GLISA lysis buffer supplemented with protease inhibitors. The extracts were scraped, transferred to microcentrifuge tubes and transferred to ice to preserve the active form of RhoA. All extracts were then cleared of debris by spinning at 10,000 rpms for 2 minutes at 4° C. The supernatants were transferred to new tubes and placed back on ice. Aliquots of each extract were removed for the GLISA assay and for protein determinations. All protein concentrations were within 10%, and the extracts were used at the achieved concentrations (equates to 15 μg total protein per well). The GLISA assay was performed using the reagents supplied in the kit.
# [1] = tested on: human retinal endothelial cells; experiment: TER of retinal endothelial cell monolayers with danazol, steroid receptor antagonists and hormones (Example 10); details: for TER at 5 minutes: None 250.30; for TER at 60 minutes: None 251.00; for TER at 30 minutes: None 262.31; for TER at 24 Hours: None 287.09
# [2] = tested on: human retinal endothelial cells; experiment: TER of retinal endothelial cell monolayers with danazol and steroid receptor antagonists (Example 6); details: for TER at 30 minutes: None 216.22; for TER at 120 minutes: None 234.23; for TER at 60 minutes: None 249.25; for TER at 24 Hours: None 312.31
# HUVECs = experiment: HUVEC invasion (BioCoat Matrigel Invasion Chambers); assay type: cell-based, human; details: 24 hours, 5% FCS; FCS raised 5674 FU±77 to 7143±516; concentration of LY294002 not specified (10 μM and 100 μM tested)
# Description: BioCoat Matrigel Invasion Chambers were purchased from BD Biosciences (San Jose, Calif.). Inserts were rehydrated at 37° C. with 500 μl HBSS for 2 hours prior to use in humidified incubator. Trypsinized HUVECs were washed twice with warm EGM-2 containing 0.1% FCS and added to the upper chamber of the invasion insert at 100,000 cells in a total volume of 250 μl. […]. Non-invasive cells were removed from the upper chamber with moistened cotton swabs and then the inserts were washed twice with HBSS. The inserts were then submerged in 10 μM calcein AM prepared in HBSS and incubated for 4 hours. Fluorescence was determined in a microplate reader at 485 nm excitation and 595 nm emission.
# All data is presented as representative experiment done in triplicate. Differences between subsets were analyzed using student t-test in Microsoft Excel. P<0.05 was considered statistically significant.
# [3] = tested on: human retinal endothelial cells; experiment: Actin stress fiber formation (Example 11), retinal cells
# [4] = tested on: human retinal endothelial cells; experiment: ECIS resistance (Example 12), retinal cells
# [5] = tested on: human renal glomerular microvascular endothelial cells; experiment: Actin stress fiber formation (Example 11), glomerular cells
# [6] = tested on: human retinal endothelial cells; experiment: Actin stress fiber formation, rhodamine-phalloidin staining, TNFα (Example 7); details: TNFα 50 ng/ml, 30 minutes
# VE-Cadherin = experiment: VE-cadherin phosphorylation (immunoprecipitation, Pro-Q diamond / SYPRO ruby densitometry); assay type: cell-based, human; details: VEGF 50 ng/ml
# Description: The plates were immediately treated to lyse the cells as follows. PBS and the lysis buffer (PBS containing 1% Triton X-100 supplemented with phosphatase inhibitor solutions 1 and 2 (Sigma), protease inhibitor (Sigma) and sodium orthovanadate at a final concentration of 2 mM) were cooled to 4° C. The cells were washed two times with 5 ml of the ice cold PBS and then lysed in 500 μl of the ice cold lysis buffer. The resulting protein extracts were transferred to 1.7 ml microcentrifuge tubes, and cell debris was removed by spinning at 4° C. at 10,000 rpm for 10 minutes. Then, 450 μl of the cleared solution was transferred to tubes containing 25 μl of Protein Dynabeads (Invitrogen) coated with 10 μl C19 anti-VE cadherin polyclonal antibody (Santa Cruz Biotechnology) (coating performed following manufacturer's protocol). The extracts and beads were then incubated overnight at 4° C. on an orbital shaker to capture VE cadherin from the extracts. The beads were then washed four times with ice cold lysis buffer. To release the protein from the beads, they were heated for 10 minutes at 75° C. in SDS loading dye containing 20% reducing dye (Invitrogen).
# The released proteins were separated in 4-20% polyacrylamide gels (Invitrogen) at 120 volts for 1 hour. To determine phosphorylation and total protein in the gels, Pro-Q diamond (Invitrogen) and SYPRO ruby (Invitrogen) protein staining were sequentially performed following the manufacturer's protocol. The gels were photographed and densitometry performed using a Kodak imaging station.
# [7] = tested on: human retinal endothelial cells; experiment: Actin stress fiber formation, rhodamine-phalloidin staining, VEGF (Example 8); assay type: cell-based; details: VEGF 25 ng/ml, 30 minutes
# Description: . […] To counter-stain for nuclei, 100 μl of a 3 μM DAPI (4,6-diamidino-2-phenylindole, dilactate (Invitrogen)) solution was added to each well. After 5 minutes, the cells were washed two times with 100 μl PBS.
# [8] = passage 12 cells, 1.0 μM, no thrombin, Untreated 0.455
# [9] = passage 12 cells, 0.1 U/ml Thrombin + 1.0 μM compound
# [10] = 10 nM hormone, alone or followed by 0.1 μM Danazol
# [11] = 0.1 μM of each additive, background subtracted, divided by 0.33 cm^2
# [12] = 10.0 μM LY294002, alone or followed by 0.1 μM Danazol
# [13] = passage 8 cells, 0.1 U/ml Thrombin + 10.0 μM compound
# [14] = passage 12 cells, 0.1 U/ml Thrombin + 10.0 μM compound
# [15] = S1P 1 μM alone, beginning at 15 minutes, strongest at 3 hours
# [16] = 15 minutes, ethanol control 1.00
compound,measurement,setting,value
"C[C@@H]1C[C@H]2[C@@H]3CCC4=CC(=O)C=C[C@]4(C)[C@@]3(F)[C@@H](O)C[C@]2(C)[C@@]1(O)C(=O)CO [Dexamethasone, dexamethasone]",Percent Inhibition vs. Untreated Control,"RhoA; passage 12 cells, 1.0 μM",5.83%
same,Mean OD (active RhoA),RhoA; [8],0.428
same,Mean OD (active RhoA),RhoA; [9],0.826
same,Percent Inhibition vs. Thrombin,RhoA; [9],33.48%
"C[C@]12CC[C@@H]3c4ccc(O)cc4CC[C@H]3[C@@H]1CC[C@@H]2O [Estradiol, estradiol]",TER at 5 minutes,[1]; [10],246.50
same,TER at 60 minutes,[1]; [10],250.00
same,TER at 30 minutes,[1]; [10],245.50
same,TER at 24 Hours,[1]; [10],328.33
"C[C@]12CC[C@@H]3c4ccc(O)cc4C[C@@H](CCCCCCCCC[S+]([O-])CCCC(F)(F)C(F)(F)F)[C@H]3[C@@H]1CC[C@@H]2O (some centres unmarked) [Fluvestrant, fluvestrant]",TER at 30 minutes,[2]; [11],228.23
same,TER at 120 minutes,[2]; [11],258.26
same,TER at 60 minutes,[2]; [11],270.27
same,TER at 24 Hours,[2]; [11],336.34
same,TER at 5 minutes,[1]; [11],223.47
same,TER at 60 minutes,[1]; [11],243.99
same,TER at 30 minutes,[1]; [11],251.50
same,TER at 24 Hours,[1]; [11],279.28
"CC(C)(O)C(=O)Nc1ccc([N+](=O)[O-])c(C(F)(F)F)c1 [Hydroxyflutamide, hydroxyflutamide]",TER at 30 minutes,[2]; [11],177.18
same,TER at 120 minutes,[2]; [11],201.20
same,TER at 60 minutes,[2]; [11],186.19
same,TER at 24 Hours,[2]; [11],297.30
same,TER at 5 minutes,[1]; [11],190.44
same,TER at 60 minutes,[1]; [11],215.97
same,TER at 30 minutes,[1]; [11],207.46
same,TER at 24 Hours,[1]; [11],267.27
O=c1cc(N2CCOCC2)oc2c(-c3ccccc3)cccc12 [LY294002],TER at 30 minutes,[2]; [12],297.30
same,TER at 120 minutes,[2]; [12],276.28
same,TER at 60 minutes,[2]; [12],354.35
same,TER at 24 Hours,[2]; [12],345.35
same,fluorescence of invaded cells,HUVECs,5814±153 FU
same,Percent Inhibition vs. Untreated Control,"RhoA; passage 8 cells, 10.0 μM",45.32%
same,Mean OD (active RhoA),"RhoA; passage 8 cells, 10.0 μM, no thrombin, Untreated 0.102",0.056
same,Mean OD (active RhoA),RhoA; [13],0.433
same,Percent Inhibition vs. Thrombin,RhoA; [13],27.86%
same,Percent Inhibition vs. Untreated Control,"RhoA; passage 12 cells, 10.0 μM",18.70%
same,Mean OD (active RhoA),"RhoA; passage 12 cells, 10.0 μM, no thrombin, Untreated 0.455",0.370
same,Mean OD (active RhoA),RhoA; [14],0.685
same,Percent Inhibition vs. Thrombin,RhoA; [14],58.73%
"CCCCCCCCCCCCC/C=C/[C@@H](O)[C@@H](N)COP(=O)(O)O [S1P, sphingosine-1 phosphate]",F-actin staining pattern,[3]; [15],showed actin cortical rings
same,persistence of increased ECIS,"[4]; 1 μM of each compound, monitored for 90 hours",about 3 hours
same,"start of increase of ECIS compared to untreated cells, after treatment",[4]; S1P 1 μM alone,≤ 15 min
same,F-actin staining pattern,[5]; [15],showed actin cortical rings
COc1cc2ncnc(Nc3ccc(Oc4ccccc4)cc3)c2cc1OC [Src-1 Inhibitor],Percent Inhibition vs. Untreated Control,"RhoA; passage 12 cells, 1.0 μM",23.21%
same,Mean OD (active RhoA),RhoA; [8],0.349
same,Mean OD (active RhoA),RhoA; [9],0.534
same,Percent Inhibition vs. Thrombin,RhoA; [9],85.85%
"C[C@]12CC[C@H]3[C@@H](CCC4=CC(=O)CC[C@@]43C)[C@@H]1CC[C@@H]2O [Testosterone, testosterone]",TER at 5 minutes,[1]; [10],257.51
same,TER at 60 minutes,[1]; [10],225.98
same,TER at 30 minutes,[1]; [10],240.49
same,TER at 24 Hours,[1]; [10],267.27
TNFα,F-actin staining pattern,[3]; TNFα 1 ng/ml alone,stress fibers were seen at all times
same,F-actin staining pattern,[6],strong stress fiber development with intensely staining focal points
same,F-actin staining pattern,[5]; TNFα 1 ng/ml alone,stress fibers were seen at all times
Thrombin,Mean OD (active RhoA),"RhoA; passage 8 cells, 0.1 U/ml Thrombin alone, Untreated 0.102",0.561
same,Mean OD (active RhoA),"RhoA; passage 12 cells, 0.1 U/ml Thrombin alone, Untreated 0.455",1.013
VEGF,Ratio phosphorylated: total protein,"VE-Cadherin; 15 minutes, ethanol control 0.215",0.481
same,Relative intensity - ProQ results (phosphorylated protein),VE-Cadherin; [16],1.89
same,Relative intensity - SYPRO results (total protein),VE-Cadherin; [16],0.84
same,fold increase of ratio phosphorylated: total protein,VE-Cadherin; versus ethanol control,(2.24 fold
same,F-actin staining pattern,[7],strong stress fiber development
